Laboratory results published in US11401255B2, “Small molecule activators of Parkin enzyme function” (Mayo Foundation for Medical Education and Research, priority 2016, dated 2022).
Where two headings read alike, the source gives them in different places.

Tests used:
Parkin = Parkin (Homo sapiens (Human), UniProt O60260); test: Parkin activation in human primary fibroblasts (western blot); format: cell-based
Description: FIGS. 15A-15H show Parkin activation in primary fibroblasts, neuronal cells and in vitro. Positive control (PC) cells were treated with DMSO and 10 μM of CCCP. Negative control (NC) cells were treated with 3.5 μM CCCP, some cells were left untreated (−). […] Vinculin was used as loading control. […] FIG. 15C: Human fibroblasts were directly converted to neurons and treated as in FIG. 15B. […] Beta III tubulin confirmed successful conversion of fibroblasts to iNeurons. FIG. 15D: Rat PC12 cells were treated as in FIG. 15A. Western blots show enhanced ubiquitylation of MFN2 and TOM70, and robust pSer65-Ub induction similar to PC, but not NC cells. FIG. 15E: In vitro E2 discharge assay. Recombinant Parkin was pre-incubated with compound 4 or DMSO as control and was mixed to Ub-loaded UbcH7. […] Control reactions were performed without PINK1 or Parkin. FIG. 15F: In vitro assay with isolated mitochondria from untreated or CCCP-treated HeLa cells lacking Parkin. Mitochondrial preparations were mixed with recombinant Parkin, E1, UbcH7, ATP and either compound 4 or DMSO as a control and incubated for the indicated times. […] Control samples were incubated in reaction mix without Parkin. FIG. 15G: Protein melting was performed with 50 ng purified Parkin mixed with SYPRO orange and DMSO as control or 500 nM compound 4. […] FIG. 15H: Statistical analysis of three independent experiments as performed in FIG. 15G. Shown in the average value+/−SD (unpaired, two-sided t-test; *** p<0.0005).
FIG. 16A: Quantification of pSer65-Ub signal using sandwich ELISA from six independent experiments performed in human fibroblast treated as described in FIG. 15A. Shown in the average−/+SD. One-way ANOVA with Tukey's posthoc test (*** p<0.0005). FIG. 16B: Human primary fibroblasts were treated with different concentrations of all five compounds (1, 2, 3, 4, and 31) for 2 h. […] Different CCCP concentrations were used as positive control. FIG. 16C: Rat PC12 cells were pretreated with 5 μM of the compounds for 2 h and then treated with low dose of CCCP (3.5 μM). Control cells were treated with DMSO and either 10 μM CCCP (PC) or 3.5 μM (NC). Some cells received no CCCP (−). […] The PINK1/Parkin product pSer65-Ub was induced by all five compounds upon low dose treatment and in positive controls. FIG. 16D: PC12 cells were differentiated by treatment with NGF (NGF+). Some cells were left undifferentiated (NGF−). Cells were treated with 5 μM of compounds or DMSO as indicated. 2 h later, low dose CCCP (3.5 μM) was added to cells treated with test compounds. DMSO controls were either treated with 3.5 μM CCCP (NC) or 10 μM CCCP (PC). Some cells were not treated with CCCP (−). Western blots probed with antibodies against MFN1 show degradation in cells treated with compounds and in the positive control. Some degradation can also be observed in the negative control. […] Beta III tubulin was used to confirm successful differentiation. Vinculin was used as loading control.
Primary fibroblasts (Cell Applications) were cultured in fibroblast growth medium (FGM): DMEM containing 10% FBS, 1% penicillin-streptomycin and 1% non-essential amino acids. Direct conversion to neurons was performed utilizing short hairpin RNA targeting polypyrimidine-tract-binding protein (shPTB), which affects proneuronal micro-RNA circuits (Xue et al., Cell (2013) 152:82-96. Cells were seeded with 40,000 cells/mL and allowed to adhere overnight. 48 h after transduction with pLKO. 1_shPTB lentivirus, positive cells were selected with 2 μg/mL puromycin in fibroblast growth medium. On day 6 media was changed to FGM containing 10 ng/mL fibroblast growth factor (FGF, Genscript). On day 8, media was changed to differentiation media (DMEM:F12 (Invitrogen), 25 μg/mL insulin, 50 μg/mL transferrin, 0.1 μM putrescine 0.03 μM Na-selenite (all Sigma-Aldrich), and 15 ng/mL FGF) containing 5% FBS. On days 10 and 12 media was replaced with differentiation media containing reduced serum (2% FBS). […]

TA 98 = test: Ames Test, strain TA 98
Description: (§1) The test used amino acid-dependent strains of Salmonella typhimurium and Escherichia coli to detect point mutations which involved substitution, addition or deletion of one or a few DNA base pairs. Point mutations were introduced in the histidine (Salmonella typhimurium) or the tryptophan (Escherichia coli) operon, making the tester strains incapable of producing these amino acids. The test detected mutations that revert the mutations present in the bacteria, restoring the functional capability to synthesize histidine or tryptophan. The revertant bacteria were detected by the ability to grow in the absence of the amino acid required by the parent test strain. A mutagenic potential of a tested compound was assessed by exposing these bacterial strains to different concentrations of the compounds and estimating number of revertant colonies grown in the absence (trace quantities) of the amino acid.
(§2) DMSO was used as the negative control.
(§3) For each experiment, tester strain cultures were grown overnight in Oxoid nutrient broth #2 at 37° C. with shaking at 235 rpm to a density of 1-2×10^9 colony forming units/mL (OD540˜2).
(§4) The tester strain (10 μL of night culture) was mixed with the test agent (10 µL of the DMSO stock) and GM liquid medium (30 μL). The obtained mixture was incubated at room temperature for 5 min in a sterile 1.5 mL tube. Then, to the tube was added 200 μL of molten top agar stored at 44° C. to prevent solidifying. After mixing with a pipette, the mixture was poured onto the surface of a GM agar plate (2.0 mL of GM agar per plate). After solidifying the top agar, the plate was inverted and incubated at 37° C. for 48 hours. Then, results were expressed as number of revertant colonies per plate.

TA 1535 = tested on: TA 1535
Description: as §1, §2, §3, §4

[1] = tested on: wp2[pKM101]+wp2 uvrA mixed 1:2; test: Ames Test, E. coli
Description: as §1, §2, §3, §4

[2] = 50 μM (row printed 100; conc. column shifted)
[3] = 100 μM (row printed 200; conc. column shifted)
[4] = 200 μM (row printed 0; conc. column shifted)

Sequence of Parkin (O60260 whole entry): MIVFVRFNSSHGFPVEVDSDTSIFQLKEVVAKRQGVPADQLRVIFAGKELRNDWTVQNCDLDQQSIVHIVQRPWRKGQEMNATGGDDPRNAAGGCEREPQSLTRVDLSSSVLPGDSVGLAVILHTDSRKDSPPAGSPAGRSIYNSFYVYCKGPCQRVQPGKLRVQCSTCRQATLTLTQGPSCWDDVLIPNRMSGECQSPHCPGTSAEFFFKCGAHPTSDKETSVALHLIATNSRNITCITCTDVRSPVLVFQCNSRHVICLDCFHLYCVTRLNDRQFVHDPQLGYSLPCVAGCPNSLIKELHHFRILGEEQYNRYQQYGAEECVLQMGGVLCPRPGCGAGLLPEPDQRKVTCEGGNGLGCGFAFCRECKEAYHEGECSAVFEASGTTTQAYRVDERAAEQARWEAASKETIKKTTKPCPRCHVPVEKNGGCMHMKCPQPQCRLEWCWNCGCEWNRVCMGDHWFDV

## Cc1nc2c(c(N3CCCN(Cc4ccccc4)CC3)n1)CCCC2 [Compound 31]
Parkin; 5 μM before low dose CCCP (3.5 μM)
  MFN1/2 degradation and pSer65-Ub levels: enhanced degradation of the substrates MFN1/2 and increase of pSer65-Ub levels
Parkin; different concentrations, 2 h, absence of CCCP
  MFN1 ubiquitylation or pSer65-Ub signals, compound treatment alone: did not induce MFN1 ubiquitylation or pSer65-Ub signals
TA 98; TA 98, 50 μM
  Fold increase (over baseline): 0.2
  Mean ± SD: 0.5 ± 0.7 revertant colonies per plate
TA 98; TA 98, 100 μM
  Fold increase (over baseline): 0.3
  Mean ± SD: 1 ± 0 revertant colonies per plate
TA 98; TA 98, 200 μM
  Mean ± SD: 1 ± 1.41 revertant colonies per plate
TA 98; TA 98, 200 μM, baseline = mean of negative control + SD
  Fold increase (over baseline): 0.3
TA 1535; TA 1535, 50 μM
  Fold increase (over baseline): 0.57
  Mean ± SD: 2.5 ± 2.12 revertant colonies per plate
TA 1535; TA 1535, 100 μM
  Fold increase (over baseline): 0.23
  Mean ± SD: 1 ± 0 revertant colonies per plate
TA 1535; TA 1535, 200 μM
  Fold increase (over baseline): 0.57
  Mean ± SD: 2.5 ± 0.7 revertant colonies per plate
[1]; [2]
  Fold increase (over baseline): 1.13
  Mean ± SD: 4.5 ± 3.53 revertant colonies per plate
[1]; [3]
  Fold increase (over baseline): 0.38
  Mean ± SD: 1.5 ± 0.7 revertant colonies per plate
[1]; [4]
  Fold increase (over baseline): 0
  Mean ± SD: 0 ± 0 revertant colonies per plate
